Measurements: patent US20230127703A1, “THERAPEUTIC AGENT FOR CORONAVIRUS INFECTION” (FUJIFILM Toyama Chemical Co., Ltd., priority 2020, published 2023)

System: SARS-CoV-2
[1] = improvement of body temperature, SpO2, chest imaging followed by negative conversion of SARS-CoV-2, N = 107

SMILES: NC(=O)c1nc(F)cnc1O [Compound A, 6-fluoro-3-hydroxy-2-pyrazinecarboxamide]
- median time to improvement compared with control group (Compound A group (107 patients) vs control group (49 patients)): shorter by approximately three days
- treatment effect compared with control group (Compound A group vs control group): statistically significantly higher treatment effect
- clinical safety (Compound A group, 107 patients, up to 14 days of treatment): no clinical safety concerns were identified
- Time to improvement in 25% of patients (days) (median) [1]: 7.7 days
- Time to improvement in 50% of patients (days) (median) [1]: 11.8 days
- Time to improvement in 75% of patients (days) (median) [1]: 15.6 days
- Patients with improvement (number of patients of N = 107, standard of care + 1,800 mg BID Day 1, 800 mg BID up to 13 days, oral, mITT): 82
